Where a name gives a salt, the structure may show the parent alone.

As a reminder, the IC50 is the concentration at which inhibition is half-maximal.

Experiment [1] concerns the target T1, NLRP3 (Homo sapiens, UniProt Q96P20). Description: THP-1 cells pyroptosis assay (LPS + nigericin, resazurin readout; THP IC50). It counts as cell-based. More on the design: Seed THP-1 cells (25,000 cells/well) containing 1.0 μg/ml LPS in 40 μl of RPMI medium; host or cells: THP-1 cells. An outline of the steps:
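IC50 from 4-parameter fit of resazurin fluorescence (100 μM, 1-2 hrs), reflecting surviving cells after pyroptosis. LPS-primed (1 μg/ml) THP-1 cells in FBS-free RPMI got compound for 3 hrs at 37° C (top 10 μM, half-log, 8 points), then nigericin 5 μM for 1 hr.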

Experiment [2] deals with T1, NLRP3. Description: Human whole blood IL1β release assay (LPS + nigericin, AlphaLisa IL-1β; HWB IC50). It counts as cell-based. Also noted: Human whole blood in Li-heparin tubes was obtained from healthy donors from a volunteer donor panel; from tissue; host or cells: human whole blood from healthy donors. As to conditions: IL-1β release. An outline of the steps: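 IL-1β in plasma supernatant quantified by AlphaLisa after nigericin (10 μM final, 1 h, 37 °C) triggering of human whole blood that had been preincubated 3 h with LPS (1 μg/ml) plus compound (half-log, 8 points, from 10 μM). IC50 by variable-slope four-parameter regression.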
On the technique in general: Bead proximity is the source of the signal in Alpha formats.

T1 sequence (Q96P20 whole entry): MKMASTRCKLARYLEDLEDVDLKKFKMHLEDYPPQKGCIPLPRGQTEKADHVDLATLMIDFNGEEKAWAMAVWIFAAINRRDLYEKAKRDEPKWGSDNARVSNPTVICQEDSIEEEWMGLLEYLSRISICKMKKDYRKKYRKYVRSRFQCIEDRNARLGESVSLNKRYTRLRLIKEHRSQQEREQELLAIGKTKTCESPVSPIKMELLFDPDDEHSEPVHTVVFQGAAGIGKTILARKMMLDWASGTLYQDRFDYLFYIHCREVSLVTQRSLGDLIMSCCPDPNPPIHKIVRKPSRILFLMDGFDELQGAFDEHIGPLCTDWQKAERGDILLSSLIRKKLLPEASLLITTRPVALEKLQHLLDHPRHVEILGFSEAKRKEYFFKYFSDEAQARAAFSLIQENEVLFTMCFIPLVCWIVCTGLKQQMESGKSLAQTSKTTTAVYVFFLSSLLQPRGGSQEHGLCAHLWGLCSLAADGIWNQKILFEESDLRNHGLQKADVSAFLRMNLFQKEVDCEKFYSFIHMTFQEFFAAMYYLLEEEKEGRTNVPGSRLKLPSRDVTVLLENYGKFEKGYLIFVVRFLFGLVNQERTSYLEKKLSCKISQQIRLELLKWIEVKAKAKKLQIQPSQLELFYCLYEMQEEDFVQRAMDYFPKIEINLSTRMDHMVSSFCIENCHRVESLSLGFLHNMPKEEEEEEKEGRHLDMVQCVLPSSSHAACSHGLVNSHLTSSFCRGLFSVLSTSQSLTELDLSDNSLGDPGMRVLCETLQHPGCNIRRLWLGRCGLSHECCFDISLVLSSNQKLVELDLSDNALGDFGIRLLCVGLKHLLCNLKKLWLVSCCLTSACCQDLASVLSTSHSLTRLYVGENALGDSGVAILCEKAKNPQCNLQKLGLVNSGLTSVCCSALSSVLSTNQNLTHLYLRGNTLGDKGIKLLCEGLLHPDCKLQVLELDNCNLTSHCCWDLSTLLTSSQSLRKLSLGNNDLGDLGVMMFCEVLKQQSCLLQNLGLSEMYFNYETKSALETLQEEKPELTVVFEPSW

Take `[2H]C([2H])([2H])Oc1cc(-c2ccc3c(c2NC(=O)NS(=O)(=O)c2ccn(C4CC4)n2)CCC3)ccn1` [Example 279, 1-Cyclopropyl-N-((5-(2-(methoxy-d3)pyridin-4-yl)-2,3-dihydro-1H-inden-4-yl)carbamoyl)-1H-pyrazole-3-sulfonamide, sodium salt]: the IC50 in experiment [1] and in experiment [2] was at most 500 nM in each case.

As for `[2H]C([2H])([2H])Oc1cc(-c2ccc3c(c2NC(=O)NS(=O)(=O)c2ccn(C4CCC4)n2)CCO3)ccn1` [Example 280, 1-Cyclobutyl-N-((5-(2-(methoxy-d3)pyridin-4-yl)-2,3-dihydrobenzofuran-4-yl)carbamoyl)-1H-pyrazole-3-sulfonamide, sodium salt], the 50% inhibitory concentration (IC50) in experiment [1] and in experiment [2] was at most 500 nM in each case.

Take `COc1cc(-c2ccc3c(c2NC(=O)NS(=O)(=O)c2ccn(C4CCC4)n2)CCO3)c(F)cn1` [Example 281, 1-Cyclobutyl-N-((5-(5-fluoro-2-methoxypyridin-4-yl)-2,3-dihydrobenzofuran-4-yl)carbamoyl)-1H-pyrazole-3-sulfonamide, sodium salt]: the IC50 in experiment [1] and in experiment [2] was at most 500 nM in each case.

On to `COc1cc(-c2ccc3c(c2NC(=O)NS(=O)(=O)c2ccc(C(C)C)c(CN(C)C)c2)CCC3)ccn1` [Example 282, 3-((Dimethylamino)methyl)-4-isopropyl-N-((5-(2-methoxypyridin-4-yl)-2,3-dihydro-1H-inden-4-yl)carbamoyl)benzenesulfonamide, sodium salt], for which the IC50 in experiment [1] and in experiment [2] was at most 500 nM in each case.

Turning to `COc1cc(-c2ccc3c(c2NC(=O)NS(=O)(=O)OC2CCN(C)C2)CCC3)ccn1` (stereo not drawn) [Example 284, 1-Methylpyrrolidin-3-yl (5-(2-methoxypyridin-4-yl)-2,3-dihydro-1H-inden-4-yl)carbamoylsulfamate], the IC50 in experiment [1] is at most 500 nM; in experiment [2], at most 1000 nM.

Regarding `CC(C)n1ccc(S(=O)(=O)NC(=O)Nc2c(-c3ccnc(N)c3)ccc3c2CCC3)n1` [Example 285, N-((5-(2-Aminopyridin-4-yl)-2,3-dihydro-1H-inden-4-yl)carbamoyl)-1-isopropyl-1H-pyrazole-3-sulfonamide], the IC50 in experiment [1] is at most 500 nM; in experiment [2] it was at most 5000 nM.

Regarding `CC(C)n1ccc(S(=O)(=O)NC(=O)Nc2c(-c3ccnc(Oc4ccccc4)c3)ccc3c2CCC3)n1` [Example 286, 1-Isopropyl-N-((5-(2-phenoxypyridin-4-yl)-2,3-dihydro-1H-inden-4-yl)carbamoyl)-1H-pyrazole-3-sulfonamide, sodium salt], the IC50 in experiment [1] was at most 500 nM; in experiment [2], at most 10000 nM.

For `CC(C)n1ccc(S(=O)(=O)NC(=O)Nc2c(-c3ccnc(OC4CCN(C)CC4)c3)ccc3c2CCC3)n1` [Example 287, 1-Isopropyl-N-((5-(2-((1-methylpiperidin-4-yl)oxy)pyridin-4-yl)-2,3-dihydro-1H-inden-4-yl)carbamoyl)-1H-pyrazole-3-sulfonamide, sodium salt], the IC50 in experiment [1] and in experiment [2] was at most 500 nM each time.

Regarding `CC(C)n1ccc(S(=O)(=O)NC(=O)Nc2c(-c3ccnc(OC4CCCOC4)c3)ccc3c2CCC3)n1` (stereo not drawn) [Example 288, 1-Isopropyl-N-((5-(2-((tetrahydro-2H-pyran-3-yl)oxy)pyridin-4-yl)-2,3-dihydro-1H-inden-4-yl)carbamoyl)-1H-pyrazole-3-sulfonamide, sodium salt], the results for the IC50 in experiment [1] and in experiment [2] were at most 500 nM and at most 5000 nM, respectively.

Regarding `COCC(C)Oc1cc(-c2ccc3c(c2NC(=O)NS(=O)(=O)c2ccn(C(C)C)n2)CCC3)ccn1` (stereo not drawn) [Example 289, 1-Isopropyl-N-((5-(2-((1-methoxypropan-2-yl)oxy)pyridin-4-yl)-2,3-dihydro-1H-inden-4-yl)carbamoyl)-1H-pyrazole-3-sulfonamide, sodium salt], the IC50 is at most 500 nM in experiment [1] and at most 5000 nM in experiment [2].

For the molecule `[2H]C([2H])([2H])Oc1cc(-c2ccc3c(c2NC(=O)NS(=O)(=O)c2ccn(C4CCC4)n2)CCC3)ccn1` [Example 290, 1-Cyclobutyl-N-((5-(2-(methoxy-d3)pyridin-4-yl)-2,3-dihydro-1H-inden-4-yl)carbamoyl)-1H-pyrazole-3-sulfonamide, sodium salt], the IC50 in experiment [1] and in experiment [2] was at most 500 nM in each case.

Consider `CC(C)n1ccc(S(=O)(=O)NC(=O)Nc2c(-c3ccnc(OC4CCOC4)c3)ccc3c2CCC3)n1` (stereo not drawn) [Example 291, 1-Isopropyl-N-((5-(2-((tetrahydrofuran-3-yl)oxy)pyridin-4-yl)-2,3-dihydro-1H-inden-4-yl)carbamoyl)-1H-pyrazole-3-sulfonamide, sodium salt], for which the IC50 was at most 500 nM in experiment [1] and at most 1000 nM in experiment [2].

Regarding `CC(C)n1ccc(S(=O)(=O)NC(=O)Nc2c(-c3ccnc(OC4CCOCC4)c3)ccc3c2CCC3)n1` [Example 292, 1-Isopropyl-N-((5-(2-((tetrahydro-2H-pyran-4-yl)oxy)pyridin-4-yl)-2,3-dihydro-1H-inden-4-yl)carbamoyl)-1H-pyrazole-3-sulfonamide, sodium salt], the IC50 was at most 500 nM in experiment [1] and at most 1000 nM in experiment [2].

Take `COc1cc(-c2ccc3c(c2NC(=O)NS(=O)(=O)c2coc(C4CC4)n2)CCC3)ccn1` [Example 293, 2-Cyclopropyl-N-((5-(2-methoxypyridin-4-yl)-2,3-dihydro-1H-inden-4-yl)carbamoyl)oxazole-4-sulfonamide, sodium salt]: the IC50 in experiment [1] was at most 500 nM; in experiment [2], at most 5000 nM.

Take `CC(C)n1ccc(S(=O)(=O)NC(=O)Nc2c(-c3ccnc(OC4CCC4)c3)ccc3c2CCC3)n1` [Example 294, N-((5-(2-Cyclobutoxypyridin-4-yl)-2,3-dihydro-1H-inden-4-yl)carbamoyl)-1-isopropyl-1H-pyrazole-3-sulfonamide, sodium salt]: the IC50 in experiment [1] was at most 500 nM; in experiment [2], at most 5000 nM.

Turning to `CC(C)n1ccc(S(=O)(=O)NC(=O)Nc2c(-c3ccnc(C4CC4)c3)ccc3c2CCC3)n1` [Example 295, N-((5-(2-Cyclopropylpyridin-4-yl)-2,3-dihydro-1H-inden-4-yl)carbamoyl)-1-isopropyl-1H-pyrazole-3-sulfonamide, sodium salt], the IC50 is at most 500 nM in experiment [1] and at most 1000 nM in experiment [2].

As for `COCc1cc(-c2ccc3c(c2NC(=O)NS(=O)(=O)c2ccn(C(C)C)n2)CCC3)ccn1` [Example 296, 1-Isopropyl-N-((5-(2-(methoxymethyl)pyridin-4-yl)-2,3-dihydro-1H-inden-4-yl)carbamoyl)-1H-pyrazole-3-sulfonamide, sodium salt], the IC50 in experiment [1] and in experiment [2] was at most 500 nM in each case.

Turning to `CC(C)n1ccc(S(=O)(=O)NC(=O)Nc2c(-c3ccnc(CO)c3)ccc3c2CCC3)n1` [Example 298, N-((5-(2-(Hydroxymethyl)pyridin-4-yl)-2,3-dihydro-1H-inden-4-yl)carbamoyl)-1-isopropyl-1H-pyrazole-3-sulfonamide], the figures for the IC50 in experiment [1] and in experiment [2] were at most 500 nM and at most 1000 nM, respectively.

As to `CC(C)n1ccc(S(=O)(=O)NC(=O)Nc2c(-c3ccnc(OCCO)c3)ccc3c2CCC3)n1` [Example 299, N-((5-(2-(2-Hydroxyethoxy)pyridin-4-yl)-2,3-dihydro-1H-inden-4-yl)carbamoyl)-1-isopropyl-1H-pyrazole-3-sulfonamide], the IC50 in experiment [1] and in experiment [2] was at most 500 nM in each case.

Take `COCCOc1cc(-c2ccc3c(c2NC(=O)NS(=O)(=O)c2ccn(C(C)C)n2)CCC3)ccn1` [Example 300, 1-Isopropyl-N-((5-(2-(2-methoxyethoxy)pyridin-4-yl)-2,3-dihydro-1H-inden-4-yl)carbamoyl)-1H-pyrazole-3-sulfonamide, sodium salt]: the values for the IC50 in experiment [1] and in experiment [2] were at most 500 nM and at most 1000 nM, respectively.

For `O=C(Nc1c(-c2ccncc2)ccc2c1CCC2)NS(=O)(=O)c1ccn(C2CC2)n1` [Example 303, 1-Cyclopropyl-N-((5-(pyridin-4-yl)-2,3-dihydro-1H-inden-4-yl)carbamoyl)-1H-pyrazole-3-sulfonamide], the IC50 in experiment [1] and in experiment [2] was at most 500 nM each time.

As for `O=C(Nc1c(-c2ccncc2)ccc2c1CCC2)NS(=O)(=O)c1ccn(C2CCC2)n1` [Example 304, 1-Cyclobutyl-N-((5-(pyridin-4-yl)-2,3-dihydro-1H-inden-4-yl)carbamoyl)-1H-pyrazole-3-sulfonamide], the IC50 in experiment [1] and in experiment [2] was at most 500 nM each time.

With `COc1cc(-c2ccc3c(c2NC(=O)NS(=O)(=O)c2nn(C4CC4)cc2F)CCC3)ccn1` [Example 305, 1-Cyclopropyl-4-fluoro-N-((5-(2-methoxypyridin-4-yl)-2,3-dihydro-1H-inden-4-yl)carbamoyl)-1H-pyrazole-3-sulfonamide], the IC50 in experiment [1] and in experiment [2] was at most 500 nM throughout.

For `COc1cc(-c2ccc3c(c2NC(=O)NS(=O)(=O)c2ccn(C(C)(C)CN4CC(F)(F)C4)n2)CCC3)ccn1` [Example 306, 1-(1-(3,3-Difluoroazetidin-1-yl)-2-methylpropan-2-yl)-N-((5-(2-methoxypyridin-4-yl)-2,3-dihydro-1H-inden-4-yl)carbamoyl)-1H-pyrazole-3-sulfonamide], the IC50 in experiment [1] and in experiment [2] was at most 500 nM in each case.
